“Also recorded” adds a separate entry of the source. Read-outs that look alike come from different tables or passages of the source.
Columns and labels:
AR4-2J cells [1] = experiment: Reversal by exogenous gastrin of antagonist-induced inhibition of AR4-2J proliferation; format: cell-based, rat; conditions: 5 x 10^-7 M gastrin added 2 h before the antagonist at its growth IC50
AR4-2J cells [2] = experiment: Inhibition of unsynchronised AR4-2J cell proliferation by gastrin/CCK receptor antagonists (MTT assay, direct cell counts); format: cell-based; conditions: Rattus norvegicus, AR-42J, 96 h, read-out: half maximal inhibitory concentration, AR4-2J proliferation
gastrin/CCK-B receptors = target: T1, gastrin/CCK-B receptors (Rattus norvegicus, UniProt P30553); experiment: Displacement of 125I-hG17-1 binding to AR4-2J cells; conditions: read-out: IC50 for displacing 125I-hG17-1 binding
T1 construct: AR4-2J cells were harvested, washed three times with Eagle's modified essential medium; host or cells: AR4-2J rat pancreatic acinar tumour cells (intact cells)
T1 sequence (P30553 1-452): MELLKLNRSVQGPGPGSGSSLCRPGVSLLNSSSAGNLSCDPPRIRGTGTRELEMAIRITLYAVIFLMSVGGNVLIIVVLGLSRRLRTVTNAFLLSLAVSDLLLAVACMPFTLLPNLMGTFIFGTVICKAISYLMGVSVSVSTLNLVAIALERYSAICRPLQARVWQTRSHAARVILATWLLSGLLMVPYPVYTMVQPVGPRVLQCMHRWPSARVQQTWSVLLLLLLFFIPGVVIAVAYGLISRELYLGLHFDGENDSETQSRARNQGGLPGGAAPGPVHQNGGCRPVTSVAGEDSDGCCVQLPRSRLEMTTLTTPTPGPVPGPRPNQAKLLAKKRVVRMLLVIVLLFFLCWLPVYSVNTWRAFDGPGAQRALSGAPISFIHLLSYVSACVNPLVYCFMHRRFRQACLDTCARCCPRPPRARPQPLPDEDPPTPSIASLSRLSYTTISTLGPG

HT-29 cells = experiment: HT-29 cell proliferation (MTT assay); format: cell-based, human
AR4-2J cells [3] = experiment: Effect of exogenous gastrin on AR4-2J proliferation in serum-free medium (MTT assay); format: cell-based, rat; conditions: up to 5 x 10^-6 M

| Compound | effect of prior addition of gastrin on the inhibition of cell growth (AR4-2J cells [1]) | also measured |
| --- | --- | --- |
| CCCCCN(CCCCC)C(=O)C(CCC(=O)O)NC(=O)c1ccc(Cl)c(Cl)c1 (racemic) [lorglumide, D, L-4-(3,4-dichlorobenzoylamino)-5-(di-n-pentylamino)-5-oxo-pentanoic acid] | partially reversed |  |
| CCCCCN(CCCOC)C(=O)C(CCC(=O)O)NC(=O)c1ccc(Cl)c(Cl)c1 (racemic) [loxiglumide, D,L-4-(3,4-di-chlorobenzoylamino) -5-(N-3-methoxypropylpentylamino)-5-oxo-pentanoic acid] | partially reversed |  |
| CCCN(CCC)C(=O)C(CCC(=O)O)NC(=O)c1ccccc1 (racemic) [proglumide, D,L-4-benzamido-N,N-di-n-propylgluta-ramic acid] | partially reversed | IC50 (AR4-2J cells [2]; 4 day incubation, text statement of range): 3 mM; IC50 (gastrin/CCK-B receptors): 1300 µM |
| Cc1cccc(NC(=O)N[C@@H]2N=C(c3ccccc3)c3ccccc3N(C)C2=O)c1 [L-365,260, 3R(+)-N-(2,3-dihydro-1-methyl-2-oxo-5-phenyl-1H-1 ,4-benzodiazepin-3-yl) -N'-(3-methylphenyl)urea] | not reversed; also recorded: not significantly effected |  |
| O=C(N[C@@H](Cc1c[nH]c2ccccc12)C(=O)O)c1ccc(Cl)cc1 [benzotript, N-p-chlorobenzoyl-L- tryptophan] | partially reversed | IC50 (gastrin/CCK-B receptors): 260 µM |
| CN1C(=O)[C@@H](NC(=O)c2cc3ccccc3[nH]2)N=C(c2ccccc2)c2ccccc21 [devazepide, 3S (- )-N-(2,3-dihydro-l-methyl-2-oxo-5-phenyl-1 H-1,4-benzodiazepine-3-yl) -1H-indole-2-carboxamide] | not reversed; also recorded: not significantly effected | IC50 (AR4-2J cells [2]): 0.017 mM |
| gastrin |  | effect on HT-29 proliferation (HT-29 cells): neither exogenous gastrin nor an anti-gastrin Ig preparation effected proliferation; effect on proliferation of asynchronous AR4-2J cells (AR4-2J cells [3]): no significant effect |
